The test system of data set [1] is alpha-2R subtype. As to conditions: alpha-2R vs alpha-2I.
Description: Receptor binding data provides evidence for two distinct alpha-2 receptor sub-types, C. […] One subtype binds with high affinity to the antagonist idazoxan, and is referred to as the "alpha-2I subtype"; the other subtype binds with high affinity to both idazoxan and to the antagonist, rauwolscine, and is referred to as the "alpha-2R subtype".
The subject of data set [2] is aged monkeys. In words: variable delayed response task (spatial working memory) in aged monkeys. To be noted: for average optimal dose for improving memory: aged monkeys; for average optimal dose for improving memory / Optimal dose: equimolar clonidine dose; for Delayed Response Performance (% change from placebo control): mean; for aged monkeys with improved memory: applicants' experiments; for Percent Improvement: at individual optimal dose; for Optimal dose: i.m.; for dose range in which effective: memory improvement, summary statement.

In data set [3] the test system is aged monkeys. Briefly: blood pressure study in awake chaired aged monkeys. Type of data set: in vivo, rhesus monkeys. As to conditions: for drop in systolic blood pressure: at the high doses optimal for memory improvement; for Systolic Blood Pressure, change vs placebo control: mean. Here is the method:
In order to measure blood pressure in the awake, behaving monkey, three aged animals were adapted to primate chair restraint for several weeks. Blood pressure was measured using a pediatric digital blood pressure monitor. Each day the animals were […] immediately injected with the drug or saline. Fifteen minutes later, three blood pressure measurements were taken. […] Following memory testing, three more blood pressure measurements were taken before the monkey was returned to its home cage. The average blood pressure response before and after memory testing was calculated; drug response was compared to the previous response on saline Drug administration was initiated only after a stable blood pressure baseline was apparent.

Data set [4] deals with alpha-2I subtype. To be noted: second figure of the alpha-2R/alpha-2I Ki ratio; cited from earlier work.
The target in data set [5] is alpha-2R subtype. To be noted: cited from earlier work.
In data set [6] the test system is aged monkeys. To be noted: for Sedation Score (0-IV): mean.
Description: Sedation was rated using a 5 point scale where 0=normal level of arousal, I=quiet, II=sedated, III=intermittent sleeping and IV=too sedated to test.
For data set [7], the system named is Korsakoff patients. To be noted: about 0.01 to 0.02 mg/kg/day for two weeks; cited from earlier work.
Data set [8] relates to aged monkeys. As to conditions: 0.01 to 0.09 mg/kg; background; cited from earlier work.
In data set [9] the test system is Alzheimer patients. To be noted: acute administration; study was terminated; cited from earlier work.
Data set [10] has as its system aged monkeys. As to conditions: early experiments, Science 230, 1273 (1985); cited from earlier work.
Data set [11] deals with rhesus monkeys. To be noted: catecholamine-depleted association cortex; cited from earlier work.
The conditions of data set [12]: clinical blood pressure studies; cited from earlier work.
The mark [13] stands for this setting: dose .0001 mg/kg i.m. (equimolar clonidine dose).
The mark [14] stands for this setting: dose .001 mg/kg i.m. (equimolar clonidine dose).
Where [15] appears, read: dose .01 mg/kg i.m. (equimolar clonidine dose).
Where [16] appears, read: dose .05 mg/kg i.m. (equimolar clonidine dose).

Read-outs that look alike come from different tables or passages of the source.

`C=CCN1CCc2nc(N)sc2CC1` [BHT-920]: the “selectivity for the alpha-2R subtype” value in data set [1] was “two times more selective”. Further, the “average optimal dose for improving memory” value (“average optimal dose” below) in data set [2] was 70 µg/kg. The “Delayed Response Performance (% change from placebo control)” value in [2] (setting [13]) was 0%; in data set [2] (setting [14]), -3%; in data set [2] (setting [15]), “+9%”; in data set [2] (setting [16]), “+8%”; in data set [2] (dose .08 mg/kg i.m. (equimolar clonidine dose)), “+15%”. In data set [3], the “drop in systolic blood pressure” value is recorded as “greater than 50 mm Hg”. Moreover, the “Systolic Blood Pressure, change vs placebo control” value (from here on “Systolic Blood Pressure, change”) is -9 mm Hg in [3] (dose .0001 mg/kg i.m.), -8 mm Hg in [3] (dose .001 mg/kg i.m.), -37 mm Hg in [3] (dose .01 mg/kg i.m.) and greater than -50 mm Hg in data set [3] (dose .05 mg/kg i.m.). In addition, the “hypotensive effects compared with the other agonists” value in data set [3] (monkey #445, FIG. 3) is “very similar to those of clonidine”. The Ki in data set [4] is 138 nM; in data set [5] it was 62.2 nM.
Turning to `Clc1cccc(Cl)c1N=C1NCCN1` [Clonidine, clonidine], the “Sedation Score (0-IV)” value is listed as 0 in [6] (dose .0001 mg/kg i.m.), 0 in [6] (dose .001 mg/kg i.m.) and “I” in [6] (dose .01 mg/kg i.m.). The “Sedation Score” value is 0 in [6] (monkey #121, at individual optimal dose); “I” in [6] (monkey #445, at individual optimal dose); 0 in data set [6] (monkey #449, at individual optimal dose). Moreover, the “average optimal dose” value in data set [2] amounted to 50 µg/kg. Also, the “aged monkeys with improved memory” value was 8 in [2] and 5/5 in [10]. For the same molecule, in data set [2] (dose 0.0001 to 0.01 mg/kg), the effect on memory result was “often impaired memory”. Moreover, the “Delayed Response Performance (% change from placebo control)” value in data set [2] (setting [13]) is reported as -6%; in data set [2] (setting [14]), “+3%”; in [2] (setting [15]) it was “+6%”; in data set [2] (setting [16]), “+12%”. The “Percent Improvement” value in [2] (monkey #107) amounted to 27%; in data set [2] (monkey #113), 30%; in data set [2] (monkey #121) it was 17%; in data set [2] (monkey #124) it was 23%; in [2] (monkey #343), 30%; in data set [2] (monkey #444), 25%. Besides, the “Percent Improvement” value was determined as 18% in [2] (monkey #445); 17% in data set [2] (monkey #446); 23% in data set [2] (monkey #447); 30% in data set [2] (monkey #448); 23% in [2] (monkey #449). In addition, the Optimal dose was 10 µg/kg in data set [2] (monkey #107); 50 µg/kg in data set [2] (monkey #113); 5 µg/kg in [2] (monkey #121); 40 µg/kg in [2] (monkey #124); 200 µg/kg in data set [2] (monkey #343); 30 µg/kg in data set [2] (monkey #444). Moreover, the Optimal dose was determined as 40 µg/kg in data set [2] (monkey #445); 80 µg/kg in data set [2] (monkey #446); 60 µg/kg in data set [2] (monkey #447); 70 µg/kg in data set [2] (monkey #448); 1 µg/kg in data set [2] (monkey #449). Moreover, the “effect on memory performance” value in data set [7] was “improved memory performance”. Further, the “drop in systolic blood pressure” value in data set [3] was “greater than 50 mm Hg”. For the same molecule, the “Systolic Blood Pressure, change” value in data set [3] (dose .0001 mg/kg i.m.) is -23 mm Hg; in data set [3] (dose .001 mg/kg i.m.), -8 mm Hg; in [3] (dose .01 mg/kg i.m.) it was -32 mm Hg; in data set [3] (dose .05 mg/kg i.m.) it was greater than -50 mm Hg. The inhibition constant Ki in data set [4] was 38.1 nM; in [5] it was 27.7 nM. In data set [8], the “side effects at memory-enhancing doses” value is “profound hypotension and sedation”. Besides, in data set [9], the side effects result was “severe hypotension and sedation”. Moreover, the “effect on behavioral deficit in spatial delayed alternation” value (from here on “effect on behavioral deficit”) in data set [11] is recorded as “pharmacologically reversed”.
As for `N=C(N)N/N=C/c1c(Cl)cccc1Cl` [Guanabenz, guanabenz], the “Sedation Score (0-IV)” value in data set [6] (dose .00000005 mg/kg i.m.) is recorded as 0; in data set [6] (dose .00001 mg/kg i.m.), 0; in data set [6] (dose .0001 mg/kg i.m.) it was 0; in [6] (dose .001 mg/kg i.m.), 0; in [6] (dose .01 mg/kg i.m.), 0; in [6] (dose .05 mg/kg i.m.), “I”. The “Delayed Response Performance (% change from placebo control)” value is given as “+8%” in data set [2] (dose .00000005 mg/kg i.m. (equimolar clonidine dose)); -1% in data set [2] (dose .00001 mg/kg i.m. (equimolar clonidine dose)); “+1%” in [2] (setting [13]); -2% in data set [2] (setting [14]); “+7%” in [2] (setting [15]); “+7%” in data set [2] (setting [16]). The “dose range in which effective” value in [2] is given as “picogram/kg range”. Also, in data set [2] (monkey #445, FIG. 3), the “doses at which memory improved” value was in the range of 5e-05 to 10 µg/kg. The “hypotensive effects compared with the other agonists” value in data set [3] (rhesus monkey, in vivo) is recorded as “more hypotensive side effects than guanfacine, but fewer side effects than clonidine”. Further, the inhibitory constant (Ki) is 5.3 nM in [4] and 36.7 nM in data set [5].
On to `N=C(N)NC(=O)Cc1c(Cl)cccc1Cl` [Guanfacine, guanfacine], for which the “Sedation Score” value in data set [6] (rhesus monkey, in vivo) stood at 0. Moreover, in data set [6] (rhesus monkey, in vivo), the sedation scores is reported as 0. In data set [2], the “average optimal dose” value was “about 0.001 mg/kg”. Moreover, the “aged monkeys with improved memory” value in data set [2] was 11/11. The “Delayed Response Performance (% change from placebo control)” value in data set [2] (setting [13]) is listed as “+9%”; in data set [2] (setting [14]), “+10%”; in [2] (setting [15]), “+10%”; in data set [2] (setting [16]) it was -6%. Moreover, the “duration of memory effects” value in data set [2] (low doses) was “up to four days”. The “dose range in which effective” value in data set [2] is listed as “nanogram/kg range”. For the same molecule, the “Percent Improvement” value worked out at 20% in data set [2] (monkey #107); 23% in data set [2] (monkey #113); 10% in [2] (monkey #121); 18% in data set [2] (monkey #124); 13% in data set [2] (monkey #343); 13% in data set [2] (monkey #444). For the same molecule, the “Percent Improvement” value in data set [2] (monkey #445) is on record as 20%; in [2] (monkey #446) it was 10%; in [2] (monkey #447), 20%; in [2] (monkey #448) it was 23%; in data set [2] (monkey #449), 20%. The Optimal dose in data set [2] (monkey #107) was found to be 10 µg/kg; in data set [2] (monkey #113), 0.001 µg/kg; in data set [2] (monkey #121), 0.001 µg/kg; in data set [2] (monkey #124) it was 0.1 µg/kg; in data set [2] (monkey #343), 0.01 µg/kg; in [2] (monkey #444) it was 10 µg/kg. Moreover, the Optimal dose was 1 µg/kg in data set [2] (monkey #445); 10 µg/kg in [2] (monkey #446); 1 µg/kg in data set [2] (monkey #447); 0.01 µg/kg in data set [2] (monkey #448); 1 µg/kg in [2] (monkey #449). The “Systolic Blood Pressure, change” value is listed as “+3 mm Hg” in data set [3] (dose .0001 mg/kg i.m.), “+6 mm Hg” in data set [3] (dose .001 mg/kg i.m.), -11 mm Hg in data set [3] (dose .01 mg/kg i.m.) and -21 mm Hg in data set [3] (dose .05 mg/kg i.m.). Moreover, in data set [3] (low, memory-improving doses), the “average change in systolic blood pressure” value is “+6 mm Hg”. The inhibitory constant (Ki) in [4] is 22.6 nM; in data set [5], 340 nM. For the same molecule, the “potency relative to clonidine” value in data set [12] is reported as 1/10.
In the case of `N[C@@H](Cc1ccc(O)c(O)c1)C(=O)O` [L-dopa], the “effect on behavioral deficit” value in data set [11] is “pharmacologically reversed”.
On to `CN1CCc2cccc3c2[C@H]1Cc1ccc(O)c(O)c1-3` [apomorphine], for which the “effect on behavioral deficit” value in [11] was “pharmacologically reversed”.
